Where a name gives a salt, the structure may show the parent alone.
What was measured:
Type in all cases: cell-based, human
[1] = system: Miro1; assay: High-throughput screening assay for Miro1 reduction after FCCP (immunostaining, 384-well); conditions: 10 μM tested
Experimental: Human dermal primary fibroblasts isolated from a PD patient (ND33424) and a healthy control (ND36091) were cultured in cell media DMEM (ThermoFisher, 11995-065) supplemented with 10% fetal bovine serum (Gemini Bio-Products, 900-108, heat-inactivated), 1×Anti Anti (ThermoFisher, 15240096), and 1×GlutaMax (ThermoFisher, 35050061) maintained in a 37° C., 5% CO2 incubator with humidified atmosphere.
Fibroblast cells were plated onto clear-bottomed/black-walled 384-well plates (EK-30091, E&K Scientific, Santa Clara, Calif.) at 2000 cells/well with Matrix Wellmate dispenser (Thermo Scientific, Sunnyvale, Calif.) and plates were incubated at 37° C., 5% CO2 for 24 hrs. Next, chemical library compounds at defined concentrations, were added using fully automated liquid handling system Caliper Life Sciences Staccato system with a Twister II robot and a Sciclone ALH3000 (Caliper Life Sciences, Alameda, Calif. USA) integrated with a V&P Scientific pin tool and plates were incubated at 37° C./5% CO2 for 10 hrs. Then, 20 μM of FCCP (Carbonyl cyanide 4-(trifluoromethoxy)phenylhydrazone, Sigma-Aldrich, C2920) in cell media was added to defined wells and plates were incubated at 37° C., 5% CO2 for another 14 hr. Cells were fixed with ice-cold 90% methanol (Fisher, 482332) for 20 min at −20° C., incubated with blocking buffer (10% Normal Goat Serum (NGS) (ThermoFisher, 50062Z), 0.5% BSA (ThermoFisher, BP1600), 0.2% Triton X-100 (ThermoFisher, T8787) at room temperature (RT) for 15 min, and incubated with anti-Miro1 solution (Sigma-Aldrich, HPA0101687) at 1:100 in blocking buffer O/N at 4° C. Samples were washed with lx PBS (ThermoFisher, 10010-049) using a Plate Washer multivalve (Bio-Tek, ELx405UV), incubated with goat anti-Rabbit IgG (H+L) Cross-Adsorbed, Alexa Fluor 488 (ThermoFisher, A11008) at 1:500 in blocking buffer at 25° C. for 2 hrs and washed again with lx PBS, finally 1.0 μg/mL DAPI (ThermoFisher, D1306) in 1×PBS was added and plates were sealed using PlateLoc (Velocity11, 01867.001). All liquids were dispensed using the Multidrop 384 (Titertek, 5840200) unless otherwise stated. Fluorescent signals in plates were automatically imaged with ImageXpress Micro (Molecular Devices, IXMicro) and data were analyzed with MetaXpress Analysis (Molecular Devices). The percent of Miro1 reduction was calculated as % Positive Cells for Miro1/Median=[(Positive Cells Miro Integrated Intensity/All Nuclear Miro Integrated Intensity)−Plate Median of this same calculation (Median % Positive Miro/Nuclear Miro in Plate Data)]/[Plate Median of this same calculation (Median % Positive Miro/Nuclear Miro in Plate Data)]. Positive cells are cells having Miro1 immunostaining. […] Negative value indicates a reduction in Miro. Positive value indicates an increase in Miro. The screening and data analysis were carried out together with Stanford University High-Throughput Bioscience Centers (HTBC).
Drugs from the NIH Clinical collection library were screened at a defined 10 μM concentration with 4 biological repeats for each drug (377 compounds). […] These compounds are ranked in the order of the degree of Miro1 reduction (Table 1A). 12 small molecules that reduced Miro1 protein levels in 3 out of 4 biological repeats were ranked in order of degree of Miro1 reduction. […] These hits were ranked in order of the degree of Miro1 reduction, with the six compounds found to reduce Miro1 protein levels by 20% or more shown (Table 1A). Moreover, an additional 12 small molecules reduced Miro1 protein levels in 3 out of 4 biological repeats (Table 1B). We next screened the Biomol FDA library with 5-fold doses (1.25-2.5-5-10-20 μM) and in duplicate. […] We ranked these 3 hits in the order of the degree of Miro1 reduction (Table 1A). Taken together, we identified 14 actives (2.5% primary hit rate) and 12 potential actives.

[2] = system: Fibroblast cells; assay: Toxicity observed in hit confirmation; conditions: highest screening concentration, sporadic PD fibroblast line
Experimental: Fibroblast cells were plated in 6-well plates (VWR, 10861-554) on coverslips (Fisher scientific, 22-293232) at 400.000 cells/well and plates were incubated at 37° C., 5% CO2 for 24 hrs. Next, newly ordered chemical compounds dissolved in DMSO were added at defined concentrations and plates were incubated at 37° C./5% CO2 for 10 hrs. Then, FCCP (final concentration of 20 μM, Carbonyl cyanide 4-(trifluoromethoxy)phenylhydrazone, Sigma-Aldrich, C2920) in cell media was added to defined wells and plates were incubated at 37° C., 5% CO2 for another 14 hrs. Cells were fixed with ice-cold 90% methanol (Fisher, 482332) for 20 min at −20° C., incubated with blocking buffer (10% Normal Goat Serum (NGS) (ThermoFisher, 50062Z), 0.5% BSA (ThermoFisher, BP1600), 0.2% Triton X-100 (ThermoFisher, T8787)) at 25° C. for 15 min and incubated with anti-Miro1 (Sigma-Aldrich, HPA0101687) at 1:100 in blocking buffer O/N at 4° C. […]

[3] = system: Miro1; assay: Hit confirmation: immunocytochemistry and confocal microscopy of Miro1 in sporadic PD fibroblasts; conditions: DMSO instead of FCCP, with compound at highest screening concentration; sporadic PD line; at least 4 biological replicates
Experimental: Fibroblast cells were plated in 6-well plates (VWR, 10861-554) on coverslips (Fisher scientific, 22-293232) at 400.000 cells/well and plates were incubated at 37° C., 5% CO2 for 24 hrs. Next, newly ordered chemical compounds dissolved in DMSO were added at defined concentrations and plates were incubated at 37° C./5% CO2 for 10 hrs. Then, FCCP (final concentration of 20 μM, Carbonyl cyanide 4-(trifluoromethoxy)phenylhydrazone, Sigma-Aldrich, C2920) in cell media was added to defined wells and plates were incubated at 37° C., 5% CO2 for another 14 hrs. Cells were fixed with ice-cold 90% methanol (Fisher, 482332) for 20 min at −20° C., incubated with blocking buffer (10% Normal Goat Serum (NGS) (ThermoFisher, 50062Z), 0.5% BSA (ThermoFisher, BP1600), 0.2% Triton X-100 (ThermoFisher, T8787)) at 25° C. for 15 min and incubated with anti-Miro1 (Sigma-Aldrich, HPA0101687) at 1:100 in blocking buffer O/N at 4° C. Samples were washed three times with 1×PBS (ThermoFisher, 10010-049), incubated with goat anti-Rabbit IgG (H+L) Cross-Adsorbed, Alexa Fluor 488 (ThermoFisher, A11008) at 1:500 in blocking buffer at 25° C. for 2 hrs and washed again three times with lx PBS, and finally samples were mounted with ProLong™ Glass Antifade Mountant with NucBlue™ Stain (hard-setting, Thermofisher, P36983) on glass slides and allowed to cure O/N. Samples were imaged at 25° C. with a 20×/N.A.0.60 oil Plan-Apochromat objective on a Leica SPE laser scanning confocal microscope (JH Technologies), with identical imaging parameters among different genotypes. Images were processed with ImageJ (Ver. 1.48, NIH) using the Intensity Ratio Nuclei Cytoplasm Tool (http://dev.mri.cnrs.fr/projects/imagej-macros/wiki/Intensity_Ratio_Nuclei_Cytoplasm_Tool), and average cytoplasmic intensity (the average intensity in the cytoplasm area) was plotted.
To reduce experimental bias such as the freshness the compounds, experimental reagents, and imaging devices, the 14 hits identified in the high-throughput screening were verified individually . The 14 compounds were tested at their highest screening concentrations with at least 4 biological replicates, using the same sporadic PD line. […] Samples were imaged with identical settings under the confocal microscope, and negative controls without primary antibodies yielded no signals under the imaging settings.

[4] = Table 1B additional small molecules (3 out of 4 biological repeats), following FCCP treatment
[5] = Table 1A hits, PD patient fibroblasts, following FCCP treatment (20 μM, 14 hr)

Row | Structure (SMILES) | % Miro1 decrease in screen [1, 4] | % Miro1 decrease in screen [1, 5] | Basal Miro1 levels (without mitochondrial depolarization) [3] | other results
1 | C[C@H]1COc2c(C3(N)CC3)c(F)cc3c(=O)c(C(=O)O)cn1c23 [Pazufloxacin] | B (Reduction of Miro levels by >20% and less than 30%) | – | – | –
2 | O=C(O)CCC(=O)c1ccc(-c2ccccc2)cc1 [Fenbufen] | – | – | – | Toxicity [2]: appeared toxic
3 | COc1ccc(/C=C/C(=O)Nc2ccccc2C(=O)O)cc1OC [Tranilast] | – | B (Reduction of Miro levels by >20% and less than 30%) | – | –
4 | Cn1nnc2c(C(N)=O)ncn2c1=O [Temozolomide] | – | A (Reduction of Miro levels by >30%) | – | –
5 | COc1ccc2[nH]c([S+]([O-])Cc3ncc(C)c(OC)c3C)nc2c1 (stereo not drawn) [Omeprazole] | C (Reduction of Miro by >10% and less than 20%) | – | – | –
6 | CC[C@H](C)C(=O)O[C@H]1C[C@H](O)C=C2C=C[C@H](C)[C@H](CC[C@@H](O)C[C@@H](O)CC(=O)O)[C@H]21 [Pravastatin Sodium] | – | – | already reduced Miro1 protein at baseline | –
7 | COC(=O)C1=C(C)NC(C)=C(C(=O)OC2CCCN(Cc3ccccc3)C2)C1c1cccc([N+](=O)[O-])c1 (stereo not drawn) [Benidipine HCl] | – | A (Reduction of Miro levels by >30%) | no impact on basal Miro1 levels | –
8 | CN(C)CCC[C@@]1(c2ccc(F)cc2)OCc2cc(C#N)ccc21 [Escitalopram Oxalate] | – | A (Reduction of Miro levels by >30%) | already reduced Miro1 protein at baseline | –
9 | C[N+]1(C)CCC(OC(=O)C(O)(c2ccccc2)C2CCCC2)C1 (stereo not drawn) [Glycopyrrolate] | – | B (Reduction of Miro levels by >20% and less than 30%) | – | –
10 | CC(C(=O)O)c1ccc(-c2ccccc2)c(F)c1 (stereo not drawn) [Flurbiprofen] | B (Reduction of Miro levels by >20% and less than 30%) | – | – | –
11 | CC(C(=O)O)c1ccc(CC2CCCC2=O)cc1 (stereo not drawn) [Loxoprofen] | B (Reduction of Miro levels by >20% and less than 30%) | – | – | –
12 | CN(CCCN1c2ccccc2CCc2ccccc21)CC(=O)c1ccc(Cl)cc1 [Lofepramine] | – | – | already reduced Miro1 protein at baseline | –
13 | CNC(=O)Oc1ccc2c(c1)[C@]1(C)CCN(C)[C@@H]1N2C [Physostigmine] | – | B (Reduction of Miro levels by >20% and less than 30%) | – | –
